Laboratory results reported in US9987364B2, “Water-swellable polymers” (Ferring B.V., priority 2002, dated 2018).

Columns and labels:
[1] = In vitro drug release from pessaries, USP Method XXIII Apparatus 2; assay type: physicochemical; conditions: 37° C., 50 rpm
Experimental: The drug loaded polymer were analysed for in vitro drug release following USP Method XXIII, Apparatus 2 at 37° C., with 50 rpm paddle speed. Drug release was analysed by ultraviolet spectroscopy or high pressure liquid chromatography (HPLC) as appropriate.
Rate of drug release k values of each dissolution profile was determined by calculating the slope of graph % drug release versus square root time. All the linear relationship between % drug release and square root time has R^2 correlation value […].

[2] = cited from earlier work
[3] = from A03003 (CLP) cross-linked polymer pessaries
[4] = from A03030 (LP) linear polymer pessaries
[5] = from A03032 (LP) linear polymer pessaries

Row | Compound | Rate of drug release, k [1, 3] [minute^−0.5] | Rate of drug release, k ([1]; from A03033 (LP) linear polymer pessaries) [minute^−0.5] | Drug solubility (in water), in words [2] | Rate of drug release, k [1, 4] [minute^−0.5] | Rate of drug release, k [1, 5] [minute^−0.5]
1 | CC(=O)[C@H]1CC[C@H]2[C@@H]3CCC4=CC(=O)CC[C@]4(C)[C@H]3CC[C@]12C [PRO, Progesterone] | 2.414 | 1.256 | Insoluble |  | 
2 | CCCCC(C)(O)C/C=C/[C@H]1[C@H](O)CC(=O)[C@@H]1CCCCCCC(=O)OC (mixture of isomers) [MIS, misoprostol] |  |  | Insoluble |  | 
3 | CC(C)(C)NCC(O)c1cc(O)cc(O)c1 (centres unmarked) [TBS, Terbutaline sulphate] | 13.628 |  | Soluble | 13.262 | 11.954
4 | CC[C@H](C)[C@@H]1NC(=O)[C@H](Cc2ccc(O)cc2)NC(=O)[C@@H](N)CSSC[C@@H](C(=O)N2CCC[C@H]2C(=O)N[C@@H](CC(C)C)C(=O)NCC(N)=O)NC(=O)[C@H](CC(N)=O)NC(=O)[C@H](CCC(N)=O)NC1=O [OXY, Oxytocin] | 6.749 |  |  | 7.875 | 7.85
